Here are results for 5 compounds from ChEMBL document CHEMBL1201862, “PubChem BioAssay data set” (2004).

The target of test [1] is T1, Mucolipin-3 (Homo sapiens, UniProt Q8TDD5).
T1 sequence (Q8TDD5 whole entry): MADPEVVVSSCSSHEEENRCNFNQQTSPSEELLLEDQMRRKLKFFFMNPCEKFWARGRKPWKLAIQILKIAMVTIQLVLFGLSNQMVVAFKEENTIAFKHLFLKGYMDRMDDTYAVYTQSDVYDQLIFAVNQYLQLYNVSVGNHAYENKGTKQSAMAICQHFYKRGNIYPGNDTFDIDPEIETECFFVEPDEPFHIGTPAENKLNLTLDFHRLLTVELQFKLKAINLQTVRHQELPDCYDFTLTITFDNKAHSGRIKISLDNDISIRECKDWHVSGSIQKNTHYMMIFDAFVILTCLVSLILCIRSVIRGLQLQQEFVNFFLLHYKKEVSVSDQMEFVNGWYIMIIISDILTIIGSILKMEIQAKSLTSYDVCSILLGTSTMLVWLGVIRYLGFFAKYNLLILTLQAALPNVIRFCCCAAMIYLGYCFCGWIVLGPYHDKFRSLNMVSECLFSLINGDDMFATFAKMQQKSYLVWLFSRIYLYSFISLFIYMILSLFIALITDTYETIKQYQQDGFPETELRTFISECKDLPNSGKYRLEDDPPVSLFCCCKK
The experiment in a line: Fluorescence counterscreen assay for […] agonists: dose response cell-based high-throughput screening assay to identify agonists of the transient receptor potential channel ML3 (TRPML3). [Related pubchem assays: 1424, 1448 ]. Format: functional. Background: Counterscreens check selectivity or assay interference.

Test [2] addresses Ion channel NompC (Danio rerio, UniProt Q7T1G6). Nature of the test: Dose response cell-based high-throughput screening assay for agonists of the transient receptor potential channel N1 (TRPN1). [Related pubchem assays (depositor defined):AID1424, AID1448]. The class given is functional.
Test [3] addresses T2, Cannabinoid receptor 2 (Homo sapiens, UniProt P34972). The experiment in a line: SAR analysis of agonists of the Cannabinoid Receptor 2 using an Image-Based Assay - Set 2. [Related pubchem assays (depositor defined):AID1961, AID1965]. Format: functional.
For test [4], the target named is T3, Cannabinoid receptor 1 (Homo sapiens, UniProt P21554). Nature of the test: SAR analysis of antagonists of the Cannabinoid Receptor 1 using an Image-Based Assay - Set 3. [Related pubchem assays (depositor defined):AID1961, AID1965]. Format: functional.
Test [5] concerns the target T4, G-protein coupled receptor 35 (Homo sapiens, UniProt Q9HC97). Nature of the test: SAR analysis of Antagonists of the GPR35 Receptor using an Image-Based Assay - Set 4. [Related pubchem assays (depositor defined):[…]]. Format: functional.
Test [6] concerns the target G-protein coupled receptor 55 (Homo sapiens, UniProt Q9Y2T6). The experiment in a line: SAR analysis of selective Agonists of GPR55 using an Image-Based Assay - Set 2. [Related pubchem assays (depositor defined):AID1961, AID1965]. The class given is functional.
Test [7] deals with T3, Cannabinoid receptor 1. Nature of the test: SAR analysis of agonists of the Cannabinoid Receptor 1 using an Image-Based Assay - Set 3. [Related pubchem assays (depositor defined):AID1961, AID1965]. Format: functional.
The target in test [8] is T2, Cannabinoid receptor 2. Nature of the test: SAR analysis of antagonists of the Cannabinoid Receptor 2 using an Image-Based Assay - Set 2. [Related pubchem assays (depositor defined):AID1961, AID1965]. Format: functional.
Test [9] has as its target T4, G-protein coupled receptor 35. The experiment in a line: SAR analysis of Agonists of the GPR35 Receptor using an Image-Based Assay - Set 3. [Related pubchem assays (depositor defined):AID1961, AID1965]. Format: functional.
Test [10] concerns the target Tumor necrosis factor (Homo sapiens, UniProt P01375). The experiment in a line: analog potency on TNFa NF-kB signaling – cell-based, revised, SAR follow-up (AID 2337). Format: functional.
In test [11] the test system is HEK293. The experiment in a line: cells. As to conditions: Homo sapiens.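 Further: cells exposed to compound for 14 hours overnight before viability readout.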
Test [12] addresses NS3 (Hepatitis C virus, UniProt A3EZJ3). Nature of the test: PubChem AID 2173. Also noted: species or system Hepacivirus hominis.
The target in test [13] is T5, Voltage-gated N-type calcium channel alpha-1B subunit/Amyloid beta A4 precursor protein-binding family A member 1 (Homo sapiens, UniProt Q00975+Q02410). Format: protein assay.
For test [14], the target named is T5, Voltage-gated N-type calcium channel alpha-1B subunit/Amyloid beta A4 precursor protein-binding family A member 1. The class given is protein assay. The source holds these as a separate data set.

The source made the active and inactive calls.

T3 sequence (P21554 whole entry): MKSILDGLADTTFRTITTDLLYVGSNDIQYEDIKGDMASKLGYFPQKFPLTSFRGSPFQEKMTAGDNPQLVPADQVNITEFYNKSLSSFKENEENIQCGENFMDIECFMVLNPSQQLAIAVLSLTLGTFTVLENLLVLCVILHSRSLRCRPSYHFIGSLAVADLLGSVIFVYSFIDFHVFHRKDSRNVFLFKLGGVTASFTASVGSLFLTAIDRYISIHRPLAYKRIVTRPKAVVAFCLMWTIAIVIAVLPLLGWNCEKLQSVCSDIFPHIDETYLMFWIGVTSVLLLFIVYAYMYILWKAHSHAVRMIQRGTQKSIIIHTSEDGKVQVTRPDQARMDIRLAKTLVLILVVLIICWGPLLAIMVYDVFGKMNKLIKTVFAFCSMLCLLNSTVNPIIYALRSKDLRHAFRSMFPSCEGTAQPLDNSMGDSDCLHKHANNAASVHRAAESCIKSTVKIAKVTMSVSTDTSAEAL
T4 sequence (Q9HC97 whole entry): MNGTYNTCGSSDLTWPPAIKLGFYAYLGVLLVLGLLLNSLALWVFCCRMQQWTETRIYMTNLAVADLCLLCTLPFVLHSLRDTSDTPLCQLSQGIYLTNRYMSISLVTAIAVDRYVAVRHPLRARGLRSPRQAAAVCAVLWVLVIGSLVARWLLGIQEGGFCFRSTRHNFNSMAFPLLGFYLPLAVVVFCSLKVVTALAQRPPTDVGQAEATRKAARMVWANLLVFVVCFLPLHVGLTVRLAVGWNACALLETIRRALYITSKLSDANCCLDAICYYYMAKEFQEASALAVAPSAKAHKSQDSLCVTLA
T2 sequence (P34972 whole entry): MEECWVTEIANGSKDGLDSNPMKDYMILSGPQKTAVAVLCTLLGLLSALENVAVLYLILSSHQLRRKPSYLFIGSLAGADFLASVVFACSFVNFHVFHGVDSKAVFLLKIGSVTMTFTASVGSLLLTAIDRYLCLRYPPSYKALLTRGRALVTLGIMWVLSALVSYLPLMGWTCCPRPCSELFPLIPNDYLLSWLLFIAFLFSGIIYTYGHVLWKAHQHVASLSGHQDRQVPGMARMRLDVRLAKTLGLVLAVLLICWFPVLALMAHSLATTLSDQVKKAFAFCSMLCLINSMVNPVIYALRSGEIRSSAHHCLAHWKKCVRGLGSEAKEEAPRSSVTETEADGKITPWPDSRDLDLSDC
Chain of G-protein coupled receptor 55 (Q9Y2T6 whole entry): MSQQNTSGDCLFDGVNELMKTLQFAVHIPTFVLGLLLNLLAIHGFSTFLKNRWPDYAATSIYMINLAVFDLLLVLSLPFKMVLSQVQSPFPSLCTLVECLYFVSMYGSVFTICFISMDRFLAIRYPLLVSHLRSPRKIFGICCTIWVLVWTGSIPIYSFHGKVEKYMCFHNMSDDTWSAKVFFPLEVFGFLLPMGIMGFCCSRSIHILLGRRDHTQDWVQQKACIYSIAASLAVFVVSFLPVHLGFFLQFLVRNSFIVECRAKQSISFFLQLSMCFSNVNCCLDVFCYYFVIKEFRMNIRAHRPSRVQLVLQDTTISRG
T5 sequence (Q00975 whole entry): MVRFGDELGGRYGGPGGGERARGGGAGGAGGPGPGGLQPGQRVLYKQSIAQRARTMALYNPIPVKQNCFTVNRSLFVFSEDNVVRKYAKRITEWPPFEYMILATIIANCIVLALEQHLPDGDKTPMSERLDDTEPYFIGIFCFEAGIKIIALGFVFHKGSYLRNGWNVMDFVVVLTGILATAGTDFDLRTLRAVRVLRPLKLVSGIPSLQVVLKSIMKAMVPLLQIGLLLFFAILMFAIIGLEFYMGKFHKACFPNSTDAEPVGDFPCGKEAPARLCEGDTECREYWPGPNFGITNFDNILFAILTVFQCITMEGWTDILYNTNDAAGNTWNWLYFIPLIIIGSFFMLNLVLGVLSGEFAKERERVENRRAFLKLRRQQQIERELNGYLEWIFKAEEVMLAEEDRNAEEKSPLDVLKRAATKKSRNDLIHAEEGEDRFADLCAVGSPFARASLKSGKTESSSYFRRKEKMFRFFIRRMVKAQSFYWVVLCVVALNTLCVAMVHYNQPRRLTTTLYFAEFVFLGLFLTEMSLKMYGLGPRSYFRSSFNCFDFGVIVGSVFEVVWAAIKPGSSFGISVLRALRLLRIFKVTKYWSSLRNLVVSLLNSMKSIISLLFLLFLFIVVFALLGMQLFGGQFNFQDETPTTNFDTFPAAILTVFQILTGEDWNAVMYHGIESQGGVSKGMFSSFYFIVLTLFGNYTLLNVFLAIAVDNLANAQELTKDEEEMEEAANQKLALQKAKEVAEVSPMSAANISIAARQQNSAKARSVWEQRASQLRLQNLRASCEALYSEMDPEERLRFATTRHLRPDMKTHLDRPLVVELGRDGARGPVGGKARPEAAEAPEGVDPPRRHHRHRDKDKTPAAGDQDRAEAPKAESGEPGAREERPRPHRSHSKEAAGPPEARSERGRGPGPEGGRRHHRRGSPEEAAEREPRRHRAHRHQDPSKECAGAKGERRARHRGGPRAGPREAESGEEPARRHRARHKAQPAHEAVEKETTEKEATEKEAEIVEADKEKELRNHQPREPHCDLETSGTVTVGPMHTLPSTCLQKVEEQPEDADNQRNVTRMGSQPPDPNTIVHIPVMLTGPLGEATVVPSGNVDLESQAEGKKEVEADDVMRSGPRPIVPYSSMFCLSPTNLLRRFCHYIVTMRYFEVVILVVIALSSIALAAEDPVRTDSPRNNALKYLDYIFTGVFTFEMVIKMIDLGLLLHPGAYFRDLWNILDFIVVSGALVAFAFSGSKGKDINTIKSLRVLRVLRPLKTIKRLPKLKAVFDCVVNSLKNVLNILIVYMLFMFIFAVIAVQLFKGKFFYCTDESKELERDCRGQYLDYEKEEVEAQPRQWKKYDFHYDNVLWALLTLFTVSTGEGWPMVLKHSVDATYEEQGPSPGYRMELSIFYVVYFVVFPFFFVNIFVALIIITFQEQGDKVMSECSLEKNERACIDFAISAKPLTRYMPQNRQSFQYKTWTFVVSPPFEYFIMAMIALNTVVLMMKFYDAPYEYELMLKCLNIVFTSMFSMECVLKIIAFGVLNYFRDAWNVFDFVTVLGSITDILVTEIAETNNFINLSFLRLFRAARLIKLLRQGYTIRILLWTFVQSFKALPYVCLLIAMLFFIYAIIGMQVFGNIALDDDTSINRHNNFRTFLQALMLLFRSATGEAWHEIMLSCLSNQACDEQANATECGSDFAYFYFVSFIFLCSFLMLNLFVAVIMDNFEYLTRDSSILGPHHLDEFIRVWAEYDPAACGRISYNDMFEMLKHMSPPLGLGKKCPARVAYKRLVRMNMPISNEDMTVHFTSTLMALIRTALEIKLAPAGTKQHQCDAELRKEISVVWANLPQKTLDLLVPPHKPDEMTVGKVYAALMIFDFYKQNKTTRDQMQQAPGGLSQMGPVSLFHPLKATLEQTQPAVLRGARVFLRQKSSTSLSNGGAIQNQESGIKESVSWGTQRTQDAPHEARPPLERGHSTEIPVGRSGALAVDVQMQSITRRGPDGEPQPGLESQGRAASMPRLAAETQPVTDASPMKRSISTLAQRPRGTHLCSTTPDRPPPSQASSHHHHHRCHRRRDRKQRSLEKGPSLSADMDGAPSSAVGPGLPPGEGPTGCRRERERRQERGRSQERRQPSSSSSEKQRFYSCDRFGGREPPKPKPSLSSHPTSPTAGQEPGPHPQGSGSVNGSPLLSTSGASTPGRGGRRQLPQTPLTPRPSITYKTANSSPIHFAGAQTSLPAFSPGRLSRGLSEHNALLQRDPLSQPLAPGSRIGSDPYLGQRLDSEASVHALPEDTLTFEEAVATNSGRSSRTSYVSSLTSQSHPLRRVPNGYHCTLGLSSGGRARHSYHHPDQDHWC
T5 sequence (Q02410 whole entry): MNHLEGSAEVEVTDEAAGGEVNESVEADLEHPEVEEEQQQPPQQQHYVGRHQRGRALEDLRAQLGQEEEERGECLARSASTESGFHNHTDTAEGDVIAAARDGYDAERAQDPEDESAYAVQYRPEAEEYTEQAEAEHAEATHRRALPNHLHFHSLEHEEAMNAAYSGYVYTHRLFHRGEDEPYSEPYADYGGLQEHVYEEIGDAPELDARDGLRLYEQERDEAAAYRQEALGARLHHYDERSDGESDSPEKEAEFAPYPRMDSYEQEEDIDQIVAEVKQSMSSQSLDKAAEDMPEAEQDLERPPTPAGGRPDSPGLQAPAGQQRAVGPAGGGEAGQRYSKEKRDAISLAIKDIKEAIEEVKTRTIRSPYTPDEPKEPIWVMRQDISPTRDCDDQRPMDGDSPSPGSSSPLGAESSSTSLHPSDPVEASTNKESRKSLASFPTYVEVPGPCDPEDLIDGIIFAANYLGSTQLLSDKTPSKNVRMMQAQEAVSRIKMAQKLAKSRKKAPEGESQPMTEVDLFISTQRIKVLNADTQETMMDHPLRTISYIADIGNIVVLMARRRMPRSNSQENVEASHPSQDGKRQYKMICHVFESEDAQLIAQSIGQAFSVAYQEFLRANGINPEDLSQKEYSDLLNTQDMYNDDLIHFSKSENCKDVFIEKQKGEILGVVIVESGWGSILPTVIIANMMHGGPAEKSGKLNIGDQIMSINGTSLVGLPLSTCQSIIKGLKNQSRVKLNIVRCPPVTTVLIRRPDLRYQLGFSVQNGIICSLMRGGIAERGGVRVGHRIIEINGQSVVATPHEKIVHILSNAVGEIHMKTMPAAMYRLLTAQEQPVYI
Chain of Tumor necrosis factor (P01375 whole entry): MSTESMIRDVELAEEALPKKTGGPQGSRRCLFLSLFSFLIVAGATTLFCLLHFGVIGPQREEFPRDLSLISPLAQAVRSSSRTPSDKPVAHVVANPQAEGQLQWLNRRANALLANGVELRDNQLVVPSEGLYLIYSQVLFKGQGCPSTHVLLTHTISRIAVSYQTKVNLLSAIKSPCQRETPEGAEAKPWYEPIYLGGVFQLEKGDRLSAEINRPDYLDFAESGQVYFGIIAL

Usually EC50 stands for the concentration giving half of the maximal effect. With `Cc1ccc(NS(=O)(=O)c2ccc(C(=O)OCC(=O)Nc3cc(C)on3)cc2)cc1`, the EC50 in [1] was > 29.9 µM (not active); in test [2] it was > 29.9 µM (inactive).

In general, IC50 refers to the point on the concentration scale where inhibition reaches its midpoint. On to `CCOc1ccc(S(=O)(=O)N2CCOCC2)cc1NC(=O)c1ccc(N2CCCC2=O)cc1`, for which the EC50 in test [3], in test [6], in test [7] and in test [9] was > 32 µM (inactive) throughout. For the same compound, the IC50 in test [4] was 4.98 µM (active); in [5] it was > 32 µM (inactive); in test [8] it was > 32 µM (inactive).

As for `CC(=O)N1CCc2cc(S(=O)(=O)N3CCN(c4ccc([N+](=O)[O-])cc4)CC3)ccc21`, the IC50 in [10] and in test [11] was > 20 µM (inactive) throughout.

`O=C(Nc1cc(S(=O)(=O)N2CCOCC2)ccc1OCC(F)(F)F)c1ccc(N2CCCC2=O)cc1`: the EC50 in test [3], in test [6], in test [7] and in test [9] was > 32 µM (inactive) each time. Further, the IC50 in [4], in test [5] and in test [8] was > 32 µM (inactive) in each case.

As for `Cc1ccc(C2CC(=O)N3CN(c4ccc(Br)cc4)CSC3=C2C#N)o1` (stereo unspecified), the IC50 in test [12] is 7.09 µM (active); in test [13] it was 14 µM (active); in test [14], 9.58 µM (active).
